pEC50: −log10 of the molar value.
Molecular target: T1, human recombinant mGluR5 (Homo sapiens, UniProt P41594)
T1 construct: expressed in transfected cells; host or cells: HEK 293 cell line
Assay: Positive modulation of mGluR5, calcium based FLIPR assay in HEK 293 cells
Conditions: EC50 of the modulation; HEK 293 cell line expressing human recombinant mGluR5; glutamate at approximately 5% basal stimulation; peak height of Ca release fluorescence signal
Experimental: The positive modulation of mGluR5 is measured in a HEK 293 cell line expressing human recombinant mGluR5 and is detected with calcium based FLIPR assay. The cells are cultured with DMEM supplemented with 10% FCS, 2 μg/mL tetracycline, 100 μg/mL hygromycin and 500 μg/mL gneticin. The cell culture media is exchanged for tetracycline-free cell culture media 3-7 days before the assay. One day before the assay the cell culture medium is exchanged to DMEM without glutamine and phenol red and supplemented with 10% FCS, 100 μg/mL hygromycin and 500 μg/mL geneticin. On the assay day, the medium of the subconfluent cultures is removed and the cells are detached by addition of 2.5 ml EDTA(0.02%) per 175 cm2 culture flask for 1 minute. The cells are resuspend in Ringer solution (140 mM NaCl, 5 mM KCl, 2.5 mM CaCl2, 1.5 mM MgCl2, 5 mM Glucose, 10 mM Hepes; adjusted to pH 7.4 with NaOH), pooled and Ringer solution added to adjust the volume to 50 mL. The cell suspension is centrifuged for […] at 1500 U/min (425 g). The supernatant is removed and the cells washed a second time with 50 ml fresh Ringer solution and centrifuged again as before. The supernatant is again removed and the pellet resuspended in Ringer solution to 1,000,000 cells/ml (1×10^6 cells/mL). The cells are plated onto BD BioCoat Poly-D-Lysine 384 well plates (20.000 cells/well; 20 μl/well). The lid covered plates are then incubated until use at 37° C./10% CO2. For dye loading, 20 μl of Calcium-4 assay kit solution (prepared according to the manufacturer's description in Ringer solution) are added to the cells and the plates are incubated for 80 min 37° C. and then 10 min at room temperature.
Controls, Compound Dilution and Assay Execution:
Each assay plate contained wells with “high” and “low” controls:
Low controls 1% DMSO/ringer solution+basal glutamate activation (defined as 100% CTL).
High controls 10 μM CDPPB+basal glutamate activation (defined as 200% CTL).
Test compounds are dissolved and diluted in DMSO to 100-fold the desired concentrations. In a second step, the compounds are diluted in Ringer solution such that the compounds are 4-fold more concentrated than the desired final assay concentration. The final DMSO concentration was 1%.
20 μl of each compound solution are then transferred to the assay plate and the Ca2+ kinetic is measured to determine any intrinsic compound activity. After 5 min incubation in the FLIPR device, the second stimulation with 20 μl of glutamate in Ringer solution (glutamate concentration adjusted to approximately 5% basal stimulation of the maximal possible glutamate effect) is added and the kinetic Ca2+ response of the wells was measured for the modulation effect.
The peak height of the Ca release related fluorescence signal (9-66) is used for the EC50. The EC50 of the modulation is calculated over a nonlinear regression with GraphPad Prism (Table 1).

T1 sequence (P41594 21-1212): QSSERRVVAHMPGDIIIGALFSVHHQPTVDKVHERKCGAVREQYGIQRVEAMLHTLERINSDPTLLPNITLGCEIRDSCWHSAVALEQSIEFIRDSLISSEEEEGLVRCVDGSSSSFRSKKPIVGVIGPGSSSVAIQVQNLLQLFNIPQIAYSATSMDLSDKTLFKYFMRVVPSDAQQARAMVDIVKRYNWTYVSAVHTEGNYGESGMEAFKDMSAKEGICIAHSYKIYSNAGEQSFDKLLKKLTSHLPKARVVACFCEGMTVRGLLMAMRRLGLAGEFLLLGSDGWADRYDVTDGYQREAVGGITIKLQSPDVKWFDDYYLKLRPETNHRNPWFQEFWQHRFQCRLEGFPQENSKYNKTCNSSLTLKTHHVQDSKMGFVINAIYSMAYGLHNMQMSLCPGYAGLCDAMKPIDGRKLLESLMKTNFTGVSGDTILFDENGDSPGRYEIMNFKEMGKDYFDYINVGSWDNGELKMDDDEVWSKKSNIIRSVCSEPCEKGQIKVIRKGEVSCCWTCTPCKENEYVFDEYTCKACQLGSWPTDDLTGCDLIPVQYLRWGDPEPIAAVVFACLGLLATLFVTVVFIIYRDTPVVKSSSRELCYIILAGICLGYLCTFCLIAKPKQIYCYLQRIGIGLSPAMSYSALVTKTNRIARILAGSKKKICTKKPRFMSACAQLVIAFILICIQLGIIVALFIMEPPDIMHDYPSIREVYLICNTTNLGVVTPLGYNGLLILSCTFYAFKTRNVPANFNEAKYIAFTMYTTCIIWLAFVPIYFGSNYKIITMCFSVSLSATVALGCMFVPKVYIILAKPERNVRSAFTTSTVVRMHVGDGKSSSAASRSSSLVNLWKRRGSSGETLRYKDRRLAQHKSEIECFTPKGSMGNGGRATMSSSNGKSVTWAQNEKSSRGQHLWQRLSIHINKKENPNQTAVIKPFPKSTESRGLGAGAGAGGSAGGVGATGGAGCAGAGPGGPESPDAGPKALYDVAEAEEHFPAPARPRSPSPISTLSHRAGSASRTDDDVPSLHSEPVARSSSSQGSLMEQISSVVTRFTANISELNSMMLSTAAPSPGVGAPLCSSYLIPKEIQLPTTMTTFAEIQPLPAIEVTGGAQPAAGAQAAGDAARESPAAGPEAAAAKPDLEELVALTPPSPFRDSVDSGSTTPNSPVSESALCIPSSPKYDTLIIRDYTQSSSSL

| pEC50 | SMILES |
| --- | --- |
| 7.19 | Cc1cc(-c2cn(-c3ccc(F)cc3)c(CC(=O)N3CCN(c4cccnn4)CC3)n2)ccc1F [Example 7.04.24.] |
| 7.04 | COc1cccc(-c2cn(-c3ccc(F)cc3)c(CC(=O)N3CCN(c4ccccn4)CC3)n2)c1 [Example 7.04.41.] |
| 6.97 | COc1cccc(-c2cn(-c3ccc(F)cc3)c(CC(=O)N3CCN(c4cc(OC)ncn4)CC3)n2)c1 [Example 7.04.38.] |
| 7.62 | Cc1cc(-c2cn(-c3ccc(F)cc3)c(CC(=O)N3CCN(c4ncncn4)CC3)n2)ccc1F [Example 7.04.28.] |
| 7.55 | COc1ccnc(N2CCN(C(=O)Cc3nc(-c4ccc(F)c(C)c4)cn3-c3ccccc3)CC2)c1 [Example 7.04.45.] |
| 6.72 | COc1ccc(-c2cn(-c3ccccc3)c(CC(=O)N3CCN(c4ccccn4)CC3)n2)cc1 [Example 7.04.30.] |
| 7.39 | COc1cc(N2CCN(C(=O)Cc3nc(-c4ccc(F)c(C)c4)cn3-c3ccc(F)cc3)CC2)ncn1 [Example 7.04.26.] |
| 7.36 | COc1ccnc(N2CCN(C(=O)Cc3nc(-c4ccc(F)c(C)c4)cn3-c3ccc(F)cc3)CC2)c1 [Example 7.04.27.] |
| 6.95 | COc1ccc(-c2cn(-c3ccccc3)c(CC(=O)N3CCN(c4ncccn4)CC3)n2)cc1 [Example 7.04.33.] |
| 6.55 | COc1ccc(-c2cn(-c3ccccc3)c(CC(=O)N3CCN(c4ncncn4)CC3)n2)cc1 [Example 7.04.32.] |
| 7.24 | COc1ccc(-c2cn(-c3ccc(F)cc3)c(CC(=O)N3CCN(c4ncc(F)cn4)CC3)n2)cc1 [Example 7.04.36.] |
| 6.84 | COc1ccc(-c2cn(-c3ccccc3)c(CC(=O)N3CCN(c4cc(OC)ccn4)CC3)n2)cc1 [Example 7.04.31.] |
| 6.92 | COc1ccc(-c2cn(-c3ccccc3)c(CC(=O)N3CCN(c4cc(OC)ncn4)CC3)n2)cc1 [Example 7.04.29.] |
| 7.96 | Cc1cc(-c2cn(-c3ccccc3)c(CC(=O)N3CCN(c4ncccn4)CC3)n2)ccc1F [Example 7.04.44.] |
| 7.02 | COc1ccc(-c2cn(-c3ccccc3)c(CC(=O)N3CCN(c4ncc(F)cn4)CC3)n2)cc1 [Example 7.04.34.] |
| 7.34 | COc1cccc(-c2cn(-c3ccc(F)cc3)c(CC(=O)N3CCN(c4ncccn4)CC3)n2)c1 [Example 7.04.37.] |
| 7.72 | COc1cc(N2CCN(C(=O)Cc3nc(-c4ccc(F)c(C)c4)cn3-c3ccccc3)CC2)ncn1 [Example 7.04.43.] |

The remaining lines, values behind:

| SMILES | pEC50 |
| --- | --- |
| Cc1ccc(-c2cn(-c3ccc(F)cc3)c(CC(=O)N3CCN(c4ncncn4)CC3)n2)cc1 [Example 7.04.08.] | 7.39 |
| COc1ccc(-c2cn(-c3ccc(F)cc3)c(CC(=O)N3CCN(c4ncc(OC)cn4)CC3)n2)cc1 [Example 7.04.16.] | 7.33 |
| Cc1ccc(-c2cn(-c3ccc(F)cc3)c(CC(=O)N3CCN(c4ncccn4)CC3)n2)cc1 [Example 7.04.04.] | 7.74 |
| COc1ccc(-c2cn(-c3ccc(F)cc3)c(CC(=O)N3CCN(c4ncccn4)CC3)n2)cc1 [Example 7.04.10.] | 7.70 |
| COc1ccc(-c2cn(-c3ccc(F)cc3)c(CC(=O)N3CCN(c4cc(OC)ccn4)CC3)n2)cc1 [Example 7.04.12.] | 7.40 |
| O=C(Cc1nc(-c2ccc(F)cc2)cn1-c1ccc(F)cc1)N1CCN(c2ncncn2)CC1 [Example 7.04.01., 2-(1,4-Bis-(4-fluoro-phenyl)-1H-imidazol-2-yl)-1-(4-[1,3,5]triazin-2-yl-piperazin-1-yl)-ethanone] | 7.28 |
| Cc1ccc(-c2cn(-c3ccc(F)cc3)c(CC(=O)N3CCN(c4cccnn4)CC3)n2)cc1 [Example 7.04.03.] | 7.38 |
| COc1cc(N2CCN(C(=O)Cc3nc(-c4ccc(F)cc4)cn3-c3ccc(F)cc3)CC2)ncn1 [Example 7.04.02.] | 7.10 |
| O=C(Cc1nc(-c2ccc(F)cc2)cn1-c1ccc(F)cc1)N1CCN(c2cccnn2)CC1 [Example 7.03.02.] | 6.95 |
| COc1cnc(N2CCN(C(=O)Cc3nc(-c4ccc(C)cc4)cn3-c3ccc(F)cc3)CC2)nc1 [Example 7.04.09.] | 7.70 |
| Cc1cc(-c2cn(-c3ccc(F)cc3)c(CC(=O)N3CCN(c4ncccn4)CC3)n2)ccc1Cl [Example 7.04.17.] | 7.68 |
| COc1ccnc(N2CCN(C(=O)Cc3nc(-c4ccc(C)cc4)cn3-c3ccc(F)cc3)CC2)c1 [Example 7.04.05.] | 7.38 |
| COc1ccc(-c2cn(-c3ccc(F)cc3)c(CC(=O)N3CCN(c4cccnn4)CC3)n2)cc1 [Example 7.04.11.] | 7.40 |
